PubChem BioAssay AID1645865 (Buhrlage Lab, Dana-Farber Cancer Institute and Novartis …, 2021)
Calls of active or inactive are those of the source.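 Rule for the calls: active = maximal inhibition of the USP30 enzyme reaching 30% or more across the dose series; inactive = the rest.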

Target: Ubiquitin carboxyl-terminal hydrolase 30 (Homo sapiens) (UniProt Q70CQ3)
Test: ubiquitin-specific protease 30 DUB inhibitors, concentration-effect, biochemical, validation of primary actives (AID 1645865)
Conditions: purified USP30, Ub-rhodamine cleavage, fluorescence, 2 h

Sequence of Ubiquitin carboxyl-terminal hydrolase 30 (Homo sapiens) (Q70CQ3 whole entry, looked up): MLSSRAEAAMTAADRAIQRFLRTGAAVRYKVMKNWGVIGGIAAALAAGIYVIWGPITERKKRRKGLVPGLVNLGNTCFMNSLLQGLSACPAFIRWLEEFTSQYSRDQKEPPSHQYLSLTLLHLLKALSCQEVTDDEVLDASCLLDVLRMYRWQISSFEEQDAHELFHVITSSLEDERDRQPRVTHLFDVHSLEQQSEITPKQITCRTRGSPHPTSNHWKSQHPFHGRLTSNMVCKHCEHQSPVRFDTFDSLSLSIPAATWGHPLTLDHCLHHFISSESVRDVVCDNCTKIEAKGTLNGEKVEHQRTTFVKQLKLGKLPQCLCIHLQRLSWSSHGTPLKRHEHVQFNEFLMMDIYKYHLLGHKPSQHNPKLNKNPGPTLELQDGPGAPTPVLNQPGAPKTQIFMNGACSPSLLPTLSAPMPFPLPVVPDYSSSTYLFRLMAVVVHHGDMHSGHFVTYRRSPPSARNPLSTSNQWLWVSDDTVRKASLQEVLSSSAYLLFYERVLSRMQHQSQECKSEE

Compound | IC50
Cc1cc2nc(/C=C/c3ccccc3)n(Cc3cccc(F)c3)c2cc1C | > 50 µM (inactive)
O=C1Nc2c(Cl)cc(Cl)cc2C1(O)c1sc(NC2CCCCC2)nc1-c1ccccc1 (centres undefined) | 31.2 µM
O=C(O)Cc1ccc(Nc2nc3ccccc3n3nnnc23)cc1 | > 50 µM (inactive)
O=C(Nc1ccc(F)cc1F)NC1Cc2ccccc2C1 | 29 µM
Cc1noc(C)c1CN1CC[C@H]2O[C@H](C(=O)NCc3ccco3)CC[C@H]21 | > 50 µM (inactive)
O=C1NC(=O)/C(=C/c2ccc(OC(=O)c3ccc(Cl)cc3Cl)cc2)N1 | 2.41 µM
COc1ccc(-n2ccn3c(CCC(=O)NCc4ccc(F)cc4)nnc3c2=O)cc1 | 25.9 µM
CCn1c(CNc2ccc(Cl)cc2)nnc1SCC(=O)Nc1ccccc1 | > 50 µM (inactive)
Cc1cnnn1-c1ccc(C(=O)Nc2cc(Cl)ccc2Cl)cc1 | 20.7 µM
CCc1nnc(NC(=O)c2nnn(-c3ccccc3Cl)c2C)s1 | > 50 µM (inactive)
Fc1cc(F)c2[nH]cc(-c3nnnn3-c3ccc4ccccc4c3)c2c1 | 7.66 µM
Cc1nn(Cc2ccccc2)c(C)c1C(=O)NC1CCCc2ccccc21 (centres undefined) | > 50 µM (inactive)
Cc1ccc(-c2nc(N3CCCC(O)C3)ncc2-c2cnccn2)s1 (centres undefined) | > 50 µM (inactive)
Cc1cc(/C=C2/C(=N)N3C(c4ccccc4)=CSC3=NC2=O)c(C)n1-c1ccc2ccccc2c1 | > 50 µM (inactive)
O=C1COc2ccccc2N1Cc1noc(-c2ccccc2)n1 | > 50 µM (inactive)
COc1ccc(CC(NC(C)=O)C(=O)NC2CCN(c3c(Cc4ccccc4)c(C)nc4ncnn34)CC2)cc1OC (centres undefined) | > 50 µM (inactive)
Cc1cc(O)c2c3c(c(O)c4c(c13)O[C@@H](C)C4(C)C)C(=O)C2=O | 35.1 µM
O=C(/C=C/c1cnc2ccccc2c1)NCc1ccccc1 | 35.1 µM
CC(=O)c1ccc(Cc2ncc(C(F)(F)F)cc2Cl)s1 | > 50 µM (inactive)
CCCCc1nc2sc3c(SCC(=O)Nc4cccc(C)c4)ncnc3c2c2c1CCC2 | > 50 µM (inactive)
Cc1c(Cl)cccc1NC(=O)Cn1c(=O)c2ccccc2n2nncc12 | > 50 µM (inactive)
CCCCNc1nc2c(-c3ccccc3)nnn2c2ccccc12 | 1.73 µM
Nc1ccccc1SC(CC(=O)c1ccc(Cl)cc1)c1ccsc1 (centres undefined) | > 50 µM (inactive)
COc1cccc(-c2cc(C(=O)Nc3cc(C)n(Cc4ccc(Cl)cc4)n3)no2)c1 | 4.38 µM
Cc1nc(Nc2ncc(C)s2)cc(C2CN(C(=O)Cc3ccccc3)CCO2)n1 (centres undefined) | 33.7 µM

Compound | IC50
O=C(NCCc1ccccc1F)c1cn2cc(Cl)ccc2n1 | 38.9 µM
O=C(NCc1cccnc1)c1cnn2c(C(F)(F)F)cc(-c3ccc(F)cc3)nc12 | 23.3 µM
O=C(NCc1cccnc1)C1CCN(c2cnc(N3CCCCCC3)nc2)CC1 | > 50 µM (inactive)
COc1cccc(N2CCN(C(=O)Nc3ccc4c(c3)NC(=O)CO4)CC2)c1 | 21.8 µM
Cn1cccc1C(=O)N1CCCC2(C1)Nc1cccnc1NC2=NC1CCCC1 (centres undefined) | > 50 µM (inactive)
O=C(Cc1nnc2c(-c3nc(C4CC4)no3)cccn12)Nc1ccccc1 | 26.8 µM
c1ccc(-c2nc(-c3nnn(-c4ccccc4)c3-c3ccncc3)no2)cc1 | 2.29 µM
COc1ccc(Cn2cnc3c([nH]c4ccc(Br)cc43)c2=O)cc1 | 0.833 µM
Cc1cc(C(=O)N2CCOCC2)c(C)n1-c1ccc(O)cc1 | > 50 µM (inactive)
O=C(Cn1c(=O)nc(-c2ccccc2)c2ccccc21)NCc1ccc2c(c1)OCO2 | 26.2 µM
O=C(Nc1ccc2c(c1)OCO2)c1[nH]nc2c1CCc1ccccc1-2 | > 50 µM (inactive)
CC(C)Cn1cc(OC(=O)c2ccc(F)cc2)c2c1nc(-c1ccc(F)cc1)n1c3ccccc3nc21 | > 50 µM (inactive)
COc1ccc(CCn2cnc3c([nH]c4ccccc43)c2=O)cc1 | 2.47 µM
Cc1ccc(-c2nnc(-n3ncc(C#N)c3N)c3ccccc23)cc1C | > 50 µM (inactive)
c1csc(CCN2CCc3nc4cccnc4cc3C2)c1 | > 50 µM (inactive)
O=C(c1nnn(Cc2ccc(Cl)cc2)c1-n1cccc1)N1CCCC1 | > 50 µM (inactive)
C[C@@]12c3ccc4c(c3C(=O)c3occ(c31)C(O)C[C@H]2O)CCC4=O (some centres undefined) | > 50 µM (inactive)
COc1ccc(C(C)=O)cc1CC(=O)Nc1nc2ccccc2[nH]1 | > 50 µM (inactive)
CC1OC1C(=O)[C@]1(O)[C@H](C)[C@@H](O)[C@@]23O[C@@]2([C@H](O)c2c(O)cccc2C3=O)[C@H]1O (some centres undefined) | > 50 µM (inactive)
CC(C)(C)c1cc(CCC(=O)Nc2c3c(nc4c2CCC4)CCCC3)cc(C(C)(C)C)c1O | > 50 µM (inactive)
O=C(Cc1cc(-c2ccc(F)cc2)on1)NCc1ccccc1 | 18.3 µM
Cc1cccc(NC(=O)CSc2ccc(-n3cnc(-c4ccccc4)c3)nn2)c1 | 1.95 µM
Cn1cc(CCNC(=O)c2cc3ccccc3[nH]2)c2cccnc21 | > 50 µM (inactive)
CC1Oc2ccccc2C(=O)N(Cc2ccc([N+](=O)[O-])cc2)C1=O (centres undefined) | > 50 µM (inactive)
CCOC(=O)c1cc2c(ccn2C)n1CC(=O)N1CCc2ccccc2C1 | > 50 µM (inactive)

Compound | IC50
CC1CCc2c(sc3ncnc(NC4CCN(CC(N)=O)CC4)c23)C1 (centres undefined) | > 50 µM (inactive)
Cn1cc(-c2noc(Cc3cccc(C(F)(F)F)c3)n2)ccc1=O | > 50 µM (inactive)
Nc1c(-c2ccc(Cl)cc2)cnc2nc(Sc3ncc(C(F)(F)F)cc3Cl)nn12 | > 50 µM (inactive)
NC(=O)c1nc(-c2cccc(F)c2)nc2c1[nH]c(=O)n2C1CCCCC1 | 3.78 µM
O=C(Nc1ccccc1Sc1ncc(-c2ccc(Cl)cc2)cn1)c1ccco1 | 4.01 µM
Cc1cc(C)c2nc3c(cc2c1)CN(Cc1ccco1)C(=O)O3 | > 50 µM (inactive)
N#Cc1ccc(NC(=O)Nc2cccn(Cc3ccccc3Br)c2=O)cc1 | > 50 µM (inactive)
Cc1ccc(Cn2nnc(C(=O)NCc3ccco3)c2-n2cccc2)cc1 | > 50 µM (inactive)
O=C(Cn1ccc2ccc(N3CCOCC3)nc21)NCc1ccccc1F | > 50 µM (inactive)
O=c1[nH]c(C2CCN(S(=O)(=O)c3ccc(S(=O)(=O)NC4CCCCC4)cc3)CC2)nc2c1nnn2Cc1c(F)cccc1Cl | 22.8 µM
Cc1cc(C)n2nc(CNc3cccc(Cl)c3)nc2n1 | > 50 µM (inactive)
CC1(C)C[C@@H](O)[C@]2(C)CC[C@]3(C)C(=CCC4[C@@]5(C)CC[C@H](O)[C@](C)(CO)[C@@H]5CC[C@]43C)[C@@H]2C1 (some centres undefined) | 3.18 µM
Cc1c(C)c2ccc(OCC(=O)NCc3ccncc3)c(C)c2oc1=O | 31.1 µM
COc1c(O)cc(CC(=O)O)c(C(C)=O)c1O | > 5 µM (inactive)
O=C1N[C@@H](Cc2ccccc2)C(=O)N2[C@H]3Nc4ccccc4[C@@]3([C@]34C[C@H]5C(=O)N[C@@H](Cc6ccccc6)C(=O)N5[C@H]3Nc3ccccc34)C[C@@H]12 | 40.3 µM
O=C(COc1cccc(C(=O)NCc2ccccc2)c1)Nc1ccc(Oc2ccccc2)cc1 | > 50 µM (inactive)
Cc1ccccc1NC(=O)Cn1cc(-c2nc(C3CC3)no2)ccc1=O | > 50 µM (inactive)
Cc1cccc(C(=O)OCC(=O)Nc2ccc3[nH]c(=O)[nH]c3c2)c1C | 2.85 µM
Cc1ccc(NC2=NC(c3ccco3)n3c(nc(C)cc3=O)N2)c(C)c1 (centres undefined) | 2.87 µM
CC(C)NC(=O)CN1C(=O)CC(C)Sc2ccc(S(=O)(=O)N3CCCCC3)cc21 (centres undefined) | 27.1 µM
O=C(COC(=O)c1ccc(Cl)cc1)Nc1ccc2[nH]c(=O)[nH]c2c1 | 3.98 µM
O=C(Nc1cccc(F)c1)c1ncoc1-c1ccco1 | > 50 µM (inactive)
COc1ccc(-c2nc3n(n2)C(c2cccc(O)c2)C2=C(CCCC2=O)N3)cc1 (centres undefined) | 38.2 µM
COc1ccc(C)cc1NC(=O)C(NS(=O)(=O)c1ccc2c(c1)CCN2C(C)=O)C(C)C (centres undefined) | > 50 µM (inactive)
Cc1cc(C)cc(NC(=O)CSc2ccc(-c3ccncc3)nn2)c1 | 34.6 µM

Compound | IC50
COc1ccc(NCc2nc3ccccc3n2Cc2ccccc2)cc1 | > 50 µM (inactive)
COCCCn1c(C(=O)NCCc2ccccc2)cc2c(=O)n3cccc(C)c3nc21 | 34.7 µM
Cc1nc(N2CCCC2)ncc1-c1cc(=O)[nH]c(N2CCc3ccccc3C2)n1 | 24.4 µM
CCS(=O)(=O)N1CCc2cc(C(=O)Nc3ccc4c(c3)OCCO4)ccc21 | > 50 µM (inactive)
COc1ccc(OC)c(-c2c(C#N)c(C)nc3c2N2CCC3CC2)c1 | 24.1 µM
COc1ccc(C)cc1NC(=O)COc1ccc2c(c1)OCO2 | > 50 µM (inactive)
CN(C)S(=O)(=O)c1ccc(N2CCCC2)c(C(=O)Nc2ccc(-c3cn4ccsc4n3)cc2)c1 | > 50 µM (inactive)
Cc1ccc(C)c(S(=O)(=O)N2CCN(c3ccc4nnc(-c5ccco5)n4n3)CC2)c1 | > 50 µM (inactive)
CN1CCN(C(=O)c2cc(-c3ccn(CC4CC4)n3)n3ccccc23)CC1 | > 50 µM (inactive)
COc1cccc(NC(=O)c2ccc3noc(-c4ccc(Cl)cc4)c3c2)c1 | 32.6 µM
COc1ccccc1NC(=O)c1cc2c(C)nn(Cc3ccccc3)c2s1 | 28.9 µM
Cc1ccc(C)c(NS(=O)(=O)c2cc(-c3cnc(C4CC4)o3)ccc2C)c1 | > 50 µM (inactive)
CCCC(=O)Nc1ccc(SCc2nnc(-c3ccccc3)o2)cc1 | > 50 µM (inactive)
Cc1c(C)n(-c2ccc(Br)cn2)c2ncnc(NCCCO)c12 | 25.4 µM
Cc1ccc(NC(=O)c2nnn(-c3ccccc3Br)c2C)cc1C | > 50 µM (inactive)
O=C(NC1CCN(c2nc(-c3cccnc3)nc3ccccc23)CC1)c1cccnc1 | > 50 µM (inactive)
CC(C)c1ccc(/C=C/C(=O)N2CCc3ccccc3C2)cc1 | 21.7 µM
Cc1ccc(CNC(=O)c2cnc3ccccc3n2)cc1 | > 50 µM (inactive)
Cc1ccc(-n2nc(C(=O)Nc3ccc(C)cn3)c3ncn(C)c(=O)c32)cc1 | 1.82 µM
Oc1ccc(-c2nc3cnccn3c2NCCc2ccccc2)c(O)c1 | > 50 µM (inactive)
COCC(C)Nc1ncc(-c2cnccn2)c(-c2ccc(C)s2)n1 (centres undefined) | > 50 µM (inactive)
COc1ccc(Nc2nc3c(S(=O)(=O)c4ccc(C)cc4)nnn3c3ccsc23)c(OC)c1 | 0.401 µM
O=C(Nc1nc2c(ccc3ccccc32)s1)c1cccc(Br)c1 | 2.44 µM
Cc1ccc2c(c1C)NC(=O)[C@]21[C@@H]2C(=O)N(c3cc(Cl)ccc3Cl)C(=O)[C@@H]2[C@@H]2CCCN21 | > 50 µM (inactive)
